Results on one compound are retold here after article PMC3699521, “ZrFsy1, a High-Affinity Fructose/H^+ Symporter from Fructophilic Yeast Zygosaccharomyces rouxii” (PLoS ONE, 2013).

The assay has as its target T1, ZrFsy1 (Zygosaccharomyces rouxii, UniProt C5DSI4).
T1 construct: gene ZYRO0C00374g; full length, 564 residues, C-terminal GFP tag, multicopy plasmid pZRS1-S (own promoter), expressed in S. cerevisiae hxt-null EBY.VW4000
T1 sequence (C5DSI4 1-564): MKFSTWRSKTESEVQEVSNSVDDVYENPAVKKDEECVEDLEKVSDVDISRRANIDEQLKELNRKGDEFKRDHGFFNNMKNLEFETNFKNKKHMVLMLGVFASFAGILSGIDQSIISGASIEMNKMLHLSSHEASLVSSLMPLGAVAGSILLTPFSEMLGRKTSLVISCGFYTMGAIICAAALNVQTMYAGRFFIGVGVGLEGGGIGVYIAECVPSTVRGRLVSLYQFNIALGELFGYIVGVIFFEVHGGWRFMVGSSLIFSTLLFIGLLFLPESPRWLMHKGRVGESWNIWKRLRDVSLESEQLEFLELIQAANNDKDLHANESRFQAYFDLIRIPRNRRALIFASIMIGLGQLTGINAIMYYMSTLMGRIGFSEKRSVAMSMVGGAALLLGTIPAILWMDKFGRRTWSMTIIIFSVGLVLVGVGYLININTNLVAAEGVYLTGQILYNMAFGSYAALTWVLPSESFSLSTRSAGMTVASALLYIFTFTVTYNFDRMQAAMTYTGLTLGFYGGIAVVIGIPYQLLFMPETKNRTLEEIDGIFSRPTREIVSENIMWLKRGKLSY
Description: inhibition of [U-14C]fructose uptake; extracellular alkalinisation on sorbose pulse. Conditions: competitor of labelled fructose; 10 mM sorbose, 25 °C, pH 5 in the proton symport assay; D / L form not stated. It is filed as cell-based.

Consider `OCC1(O)OC[C@H](O)[C@@H](O)[C@@H]1O` (stereo partly shown) [sorbose], for which the “inhibition of [U-14C]fructose uptake; extracellular alkalinisation on sorbose pu” value is given as “transport of radioactive fructose by ZrFsy1 was inhibited by sorbose but not by glucose”.
